The values that follow come from article PMC9138545, “Incorporation of Oxidized Phenylalanine Derivatives into Insulin Signaling Relevant Proteins May Link Oxidative Stress to Signaling Conditions Underlying Chronic Insulin Resistance” (Biomedicines, 2022).

Experiment [1] has as its system IR kinase (989–1382, fused to GST). Put plainly: IR kinase phosphorylation assay, capillary electrophoresis. Format: biochemical. The following applies: 200 μM peptide, 875 nM IR kinase, 1 mM ATP, 5 mM MgCl2, pH 7.5. As for the experimental part:
Enzymatically active IR kinase (989–1382, fused to GST and produced in SF9 cells) was ordered from SinoBiological (catalog number 11081-H20B1). The stock solution was aliquoted and frozen separately to preserve activity. Prior to comparative measurements, the activity of recombinant IR kinase was tested on internal control peptides and found to be suitable for kinase assays.
The kinase assay mixture contained 200 μM peptide (GRKGSGDYMPMSPKV) and 875 nM IR kinase in kinase buffer (20 mM potassium phosphate (monobasic), 15 mM sodium phosphate (dibasic), 103 mM NaCl, 5 mM MgCl2, 5% glycerol, 0.05% Igepal; pH 7.5). The reaction was initialized by addition of 1 mM ATP. The phosphatase reaction mixture contained 80 μM peptide (GRKGSGD(phosphoY)MPMSPKV) in buffer (50 mM TRIS, 150 mM NaCl, 1 mM EDTA and 2 mM DTT; pH 7.4). The reaction was initialized by addition of 25 nM PTP1B enzyme. Equal aliquots of the kinase or the phosphatase reaction mixture were subjected to capillary electrophoresis analysis at the indicated time points after the start the reaction.
Background electrolyte (BGE) components phosphoric acid and triethylamine were purchased from Sigma (St. Louis, MO, USA) and from Merck GmbH (Darmstadt, Germany), respectively. Capillary electrophoresis was performed with an Agilent Capillary Electrophoresis 3DCE system (Agilent Technologies, Waldbronn, Germany) applying DB-WAX coated capillary having a 33.5 cm total and 25 cm effective length with 50 μm I.D. (Agilent Technologies, Santa Clara, CA, USA). On-line absorption at 200 nm was monitored by DAD UV-Vis detector. The capillary was thermostated at 25 °C. Before measurements, the capillary was rinsed subsequently with distilled water for 15 min and between measurements with BGE (100 mM trimethylamine-phosphate buffer; pH 2.5) for 3 min. Samples were injected by 5 × 10^3 Pa pressure for 6 s. Runs were performed in the positive-polarity mode with 20 kV.

The subject of experiment [2] is 3T3-L1 adipocytes. Put plainly: HPLC of non-protein-bound intracellular tyrosines. The format is cell-based, mouse. Particulars: 5 or 25 mmol/L glucose, with or without 400 nmol/L insulin. As for the experimental part: (§1) Early passages of mouse embryo fibroblast (3T3-L1) (ATCC, Manassas, VA, US) were cultured in Dulbecco’s modified Eagle medium (DMEM, Sigma Aldrich, Budapest, Hungary, CAT number: D6046; Invitrogen, Waltham, MA, USA, CAT number: 41966-029) supplemented with 100 U/mL penicillin, 0.1 mg/mL streptomycin (Gibco, Budapest, Hungary, CAT number: 15070-063) and 10% heat-inactivated Fetal Bovine Serum (FBS, Gibco, CAT number: 16170-078), supplemented with 398 nM p-, m-, or o-Tyr (equimolar to the original p-Tyr content of the medium) purchased from Sigma (CAT number: para-Tyr: T8566, m-Tyr: T3629, o-Tyr: 93851). Media contained 25 or 5 mmol/L glucose (experiment dependent) pyruvate and L-glutamine. Cells were grown at 37 °C and 5% CO2. Adipocyte differentiation was achieved by DMEM supplemented with 10% FBS (Gibco, Csertex, Budapest, Hungary, CAT number: 10106-169) (FBS) and a […] insulin (Sigma Aldrich, Budapest, Hungary, CAT number: I 9278), […] isobuthylmethylxanthine (Sigma Aldrich, Budapest, Hungary, CAT number: I 5879), and 250 nmol/L dexamethasone (Sigma Aldrich, Budapest, Hungary, CAT number: 861871) containing cocktail. From day 4 onward, cultures were maintained in DMEM containing 1.5 μg/mL insulin and 10% FBS with a medium change every other day until experimental treatments were started. After 90% of the cell population reached the adipocyte phenotype, prior to all treatments, cells were incubated overnight in serum-deprived medium. Experimental treatment was performed in serum-deprived medium containing 200 or 400 nmol/L insulin, for 5 min.
To measure the total intracellular non-protein-bound tyrosine concentration, prior to the freezing of samples overnight at −70 °C to achieve cell lysis, 200 μL distilled water was added to each. After melting up, samples were centrifuged for 15 min at 15,000 rpm. A total of 200 µL of the supernatant was mixed with 200 µL of 60% trichloroacetic acid. After 30 min incubation on ice, samples were centrifuged again at 15,000 rpm for 15 min. Then, the supernatant was filtered and was diluted 5-fold and then 160 µL distilled water was added to 40 µL of filtrate, followed by the injection of the mixture onto the HPLC column.
The amounts of p-, o-, m-Tyr and Phe in the samples were determined by measuring their autofluorescence. Thus, no derivatization or staining was needed. Samples were measured on a Shimadzu Class 10 HPLC system equipped with an RF-10 AXL fluorescent detector (Shimadzu USA Manufacturing Inc., Canby, OR, USA). The mobile phase consisted of 1% sodium acetate and 1% acetic acid dissolved in water. The separation took place on a LiChroCHART 250-4 column (Merck KGaA, Darmstadt 64271, Germany) in an isocratic run. Wavelengths of 275 nm for excitation and 305 nm for emission were used to assess p-, o- and m-Tyr, while Phe was detected at 258 nm excitation and 288 nm emission wavelengths. Determination of the area under the curve (AUC) plus external standard calibration was used to calculate the precise concentrations of the amino acids.

Experiment [3] relates to 3T3-L1 adipocytes. Put plainly: Isotope glucose uptake (deoxy-D-glucose 2-[1 2-3H(N)]) in differentiated 3T3-L1 adipocytes. The format is cell-based, mouse. How it is done: as §1
Initially, cells were kept in glucose-free DMEM (Gibco, Csertex, Budapest, Hungary) for 30 min and then were treated with 2, 20, 200, or 400 nmol/L insulin for 100 min. Concurrently, 1 μCi/mL deoxy-D-glucose 2-[1 2-3H(N)] (3.7 × 104 Bq/mL) (Izotóp Intézet, Budapest, Hungary) was added to the plates for 100 min. After scraping the cells into the medium, they were centrifuged for 5 min at 1000 rpm. We dissolved the sediment in 70 μL of lysis buffer, then glucose uptake was determined by scintillation counting by measuring 30 μL of the sample, using a Beckman LS 5000 TD counter, in counts per minute (CPM), for five minutes each, with average activity was used as the outcome. Following freezing overnight at −70 °C, protein concentration was measured with a Hitachi spectrophotometer. Results were normalized for protein content.

In experiment [4] the test system is GLUT4 and vimentin in podocytes. Put plainly: Immunofluorescence of GLUT4 and vimentin in insulin-treated podocytes. Format: cell-based, human. The following applies: 400 nmol/l insulin for 10 min. As for the experimental part:
(§2) The conditionally immortalized human podocyte cell line (provided by Moin Saleem, University of Bristol, UK) was cultured in RPMI1640 medium (R8756, Sigma Aldrich, Budapest, Hungary) supplemented with 10% heat-inactivated FBS (16170-078, Gibco, Budapest, Hungary), insulin-transferrin-selenium supplement (41400-045, Gibco), 100 U/mL penicillin, 0.1 mg/mL streptomycin (P4333, Sigma), and […] (equimolar to the original p-Tyr content of the medium) para-, meta-, or ortho-Tyr. The cells were grown at 33 °C 5% CO2, and when they reached 40–60% confluency they were transferred to 37 °C to differentiate. Following the thermoswitching, cells were kept on RPMI1640 medium containing 2% FBS, antibiotics, and different tyrosines. Before every treatment, cells were incubated in serum-deprived medium overnight.
(§3) In a 6-well plate, 104 cells were cultured on glass coverslips washed with alcohol and dried under UV light. The podocyte cells were grown in RPMI1640 medium supplemented with 10% heat-inactivated FBS at 33 °C, 5% CO2. When they reached 60% confluence, the medium was changed to RPMI1640 medium containing 2% FBS and 112.05 nM of the different tyrosine isoforms, then the plates were transferred to 37 °C, 5% CO2 to allow the cells to differentiate. The different tyrosine isoforms were added to the maintenance medium. The cells were serum deprived overnight, then incubated with 400 nmol/l insulin for 10 min. After removal of the medium, the coverslips were washed twice with PBS. The cells were fixed at room temperature in 2% paraformaldehyde and 4% sucrose for 8 min, then permeabilized using 0.3% Trion X-100 in 1xPBS for 20 min and blocked in 2.5% BSA for 45 min [45]. The primary antibody was diluted in 1xPBS, and the cells were incubated in it for 60 min in humid conditions. The antibodies we used were mouse anti-WT1 antibody (H-1) (1:100, Santa Cruz Biotechnology, Dallas, TX, USA), chicken anti-vimentin antibody (1:100, Abcam), rabbit anti-glucose transporter GLUT4 antibody (1:100, Abcam, Cambridge, UK), mouse Insulin Receptor Substrate-1 antibody (1:100, Invitrogen, Waltham, MA, USA), and rabbit anti-phospho-Insulin Receptor Substrate-1 (pTyr612) antibody (1:10, Sigma). Coverslips were washed in PBS three times for 5 min in PBS and incubated in the fluorophore-conjugated secondary antibodies anti-goat, anti-chicken, secondary antibody Alexa fluor 647, anti-rabbit Alexa fluor 350, and anti-mouse Alexa Fluor 488 (1:10, Invitrogen) for 60 min. Samples were then washed in PBS three times for 5 min and mounted in Vectashield (Vector Laboratories). Images were taken with a Nikon Eclipse Ti2 microscope.

The test system of experiment [5] is p-IRS-1 in podocytes. Put plainly: Immunofluorescence of p-IRS-1 in insulin-treated podocytes. The format is cell-based, human. Particulars: 400 nmol/l insulin for 10 min. How it is done:
as §2, §3

Experiment [6] relates to Akt (Ser473). Put plainly: Western blot, activating phosphorylation of Akt (Ser473). Format: cell-based. Particulars: 400 nmol/L insulin; adipocytes, HEK cells, podocytes, macrophages; n = 4–8. As for the experimental part:
as §1, §2
(§4) HEK-293 immortalized cell line (ATCC, Manassas, VA, USA) of epithelial morphology and the J774A.1 mouse BALB/C monocyte-macrophage cell lines (91051511-1VL, Sigma Aldrich, Budapest, Hungary) were cultured in Petri dishes with a medium composed of Dulbecco’s modified Eagle’s medium (DMEM, Sigma Aldrich, Budapest, Hungary, CAT number: D6046, Invitrogen, CAT number: 41966-029), with a 10% heat-inactivated FBS supplementation (16170-078, Gibco), insulin-transferrin-selenium supplement (41400-045, Gibco, Budapest, Hungary,), 100 U/mL penicillin and 0.1 mg/mL streptomycin (P4333, Sigma) and 398 nM para (5 and 25 mmol/L), meta-, or ortho-Tyr (T8566, T3629, 93851, Sigma). Before treatment, cells were incubated in serum-deprived medium overnight as well. […]
(§5) The samples of lysates were vortexed and centrifuged (10 min, 13,000 rpm, at 4 °C). Protein content of the samples was determined by the Lowry method using bovine serum albumin as a standard. […]
A general note: A western blot detects proteins with antibodies after separation by electrophoresis.

In experiment [7] the test system is IRS-1 (Tyr612). Put plainly: Western blot, activating phosphorylation of IRS-1 (Tyr612). The following applies: 400 nmol/L insulin; adipocytes, HEK cells, podocytes, macrophages; n = 4–8. Format: cell-based. As for the experimental part:
as §1, §2, §4, §5

Entries after “also recorded” stand apart in the source; their conditions may differ.

Turning to “GRKGSGDF(4-hydroxy)MPMSPKV [p-Tyr containing “natural” peptide, unphosphorylated para-tyrosine IRS-1 YXXM motif peptide]”, the “phosphorylation by IR kinase” value in experiment [1] is “efficiently phosphorylated”.
On to “GRKGSGDF(2-hydroxy)MPMSPKV [o-tyrosine containing peptides, unphosphorylated ortho-tyrosine IRS-1 YXXM motif peptide]”, for which the “phosphorylation by IR kinase” value in experiment [1] is “neither o- nor m-tyrosine containing peptides are substrates for the IR kinase”; in experiment [1] (listed as ortho-tyrosine peptides) it was “very poor substrates”.
With “GRKGSGDF(3-hydroxy)MPMSPKV [m-tyrosine containing peptides, unphosphorylated meta-tyrosine IRS-1 YXXM motif peptide]”, the “phosphorylation by IR kinase” value in experiment [1] is listed as “neither o- nor m-tyrosine containing peptides are substrates for the IR kinase”; in experiment [1] (listed as meta-tyrosine peptides) it was “very poor substrates”.
For `N[C@@H](Cc1ccc(O)cc1)C(=O)O` [p-Tyr, para-tyrosine, reference compound], the “cellular uptake of amino acids (non-protein-bound intracellular content)” value in experiment [2] is “continuous uptake of amino acids which was independent of glucose concentration (5 or 25 mmol/L) and the presence of insulin”. In experiment [3] (increasing p-Tyr concentrations, with or without 400 nmol/L insulin, n = 10), the “reversal of inhibitory effect of o- and m-Tyr on glucose uptake” value is on record as “ameliorated by increasing concentrations of p-Tyr”. For the same compound, in experiment [4], the GLUT4 membrane localization entry is “characteristic localization of GLUT-4 positivity; also recorded: GLUT4 aggregates are transported to the membrane”. Also, the “membrane translocation of IRS-1 / p-IRS-1” value in experiment [5] is recorded as “clearly demonstrated; also recorded: located in the membrane”. For the same compound, the p-IRS-1 intensity result in experiment [5] (vs. p-Tyr) is “more intense”.
“insulin: insulin (Sigma Aldrich, I 9278)”: the “insulin-induced Akt phosphorylation” value in experiment [6] is recorded as “approximately two-fold”. The “insulin-induced glucose uptake, time dependence” value in experiment [3] (200 nmol/L insulin, cells grown 1, 2, 3, 4, 5 or 12 days with p-, m- or o-Tyr, n = 5–8) is given as “approximately two-fold”. Besides, the “insulin-induced glucose uptake, 5 mmol/L glucose” value in experiment [3] (2, 20, 200, 400 nmol/L insulin, 5 mmol/L glucose, medium with p-, m- or o-Tyr) is given as “marked increase in glucose uptake in 5 mmol/L glucose”. The “insulin-induced IRS-1 phosphorylation” value in experiment [7] is listed as “approximately two-fold”.
